Measured values published in patent publication US20140261474A1, “METHODS FOR INHALATION OF SMOKE-FREE NICOTINE” (priority 2013, published 2014).
Read-outs that look alike come from different tables or passages of the source.

Key:
[1] = tested on: healthy volunteers (two ex-smokers and one non-smoker); settings: in vivo
smokers = settings: nicotine containing droplets delivered to the alveolar region; cited from earlier work
[2] = from cigarettes containing 6 to 11 mg of nicotine; cited from earlier work

SMILES | Adverse effects ([1]; pH 2.9) | Comment (sensory perceptions and effects) ([1]; pH 3) | Adverse effects ([1]; pH 3.2) | Comment (sensory perceptions and effects) ([1]; pH 3.2) | Presence/Intensity of “buzz” ([1]; pH 3.2) | craving for cigarettes (smokers) | nicotine the smoker typically absorbs [2]
CN1CCCC1c1cccnc1.O=C(O)C(O)C(O)C(=O)O (stereo not shown) [Nicotine Bitartrate, Nicotine bitartrate] | Slight | No taste, buzz | Slight | No taste, buzz | None | – | –
CN1CCC[C@H]1c1cccnc1 [nicotine, S-3-(1-methyl-2-pyrrolidinyl)pyridine] | – | – | – | – | – | very rapid and sustained reduction of craving for cigarettes | 1 to 3 mg
